Data published in patent US12377068B2, “In vitro and xenograft anti-tumor activity of a halogenated-xanthene against refractory pediatric solid tumors” (Provectus Pharmatech, Inc., priority 2018, dated 2025).

Tests used:
[1] = test system: SK-N-AS, SK-N-BE (2), IMR5 and SK-N-MC cells; assay: combination studies with PV-10, summary over cell lines; type: cell-based; details: in combination, 96 hours
Procedure: (§1) Cells were cultured as described for cytotoxicity assays. A dilution series of three test drugs (doxorubicin, etoposide, vincristine) were prepared in DMEM containing either PBS (vehicle control) or PV10 (50 µM final) and added to cells in triplicate. Plates were cultured, washed and cell viability analyzed by alamar Blue®, as described for cytotoxicity assays. Combination indices (CI) for IC50 of test drug in combination with 50 µM PV-10 were calculated using CompuSyn software (ComboSyn Inc.). CI values were scored according to the following criteria CI<1 indicated synergistic activity, CI=1 indicated additive activity and CI>1 indicated […].

[2] = test system: SK-N-AS; assay: combination studies with PV-10, alamar Blue; type: cell-based; details: in combination with 50 μM PV-10, 96 hours
Procedure: as §1

[3] = test system: SK-N-BE(2); assay: combination studies with PV-10, alamar Blue; type: cell-based; details: in combination with 50 μM PV-10, 96 hours
Procedure: as §1

[4] = test system: SK-N-MC; assay: combination studies with PV-10, alamar Blue; type: cell-based; details: in combination with 50 μM PV-10, 96 hours
Procedure: as §1

[5] = test system: IMR5; assay: combination studies with PV-10, alamar Blue; type: cell-based; details: IMR5, in combination with 50 μM PV-10, 96 hours
Procedure: as §1

[6] = rat; cited from earlier work

With COc1cccc2c1C(=O)c1c(O)c3c(c(O)c1C2=O)C[C@@](O)(C(=O)CO)C[C@@H]3O[C@H]1C[C@H](N)[C@H](O)[C@H](C)O1 [Doxorubicin, doxorubicin] the “CI values, range over the cell lines” value [1] was 0.42-0.77, the “combination index (CI) for IC50 of test drug” value (“combination index (CI)” below) [2] was 0.77 and the “combination index (CI)” value [3] was 0.72. For the same molecule, the “combination index (CI)” value [4] was 0.42 and the “combination index (CI)” value [5] was 0.38.
In the case of COc1cc([C@@H]2c3cc4c(cc3[C@@H](O[C@@H]3O[C@@H]5CO[C@@H](C)O[C@H]5[C@H](O)[C@H]3O)[C@H]3COC(=O)[C@H]23)OCO4)cc(OC)c1O [Etoposide, etoposide], the “CI values, range over the cell lines” value [1] is reported as 0.17-0.66, the “combination index (CI)” value [2] is reported as 0.17 and the “combination index (CI)” value [3] is reported as 0.66. The “combination index (CI)” value [4] was 0.58 and the “combination index (CI)” value [5] was 0.65.
In the case of O=C([O-])c1c(Cl)c(Cl)c(Cl)c(Cl)c1-c1c2cc(I)c(=O)c(I)c-2oc2c(I)c([O-])c(I)cc12.[Na+].[Na+] [Rose Bengal, 4,5,6,7-tetrachloro-2′,4′,5′,7′-tetraiodofluorescein disodium], the “in vivo biological lifetime” value [6] is given as “a few minutes”.
For CC[C@]1(O)C[C@H]2CN(CCc3c([nH]c4ccccc34)[C@@](C(=O)OC)(c3cc4c(cc3OC)N(C=O)[C@H]3[C@@](O)(C(=O)OC)[C@H](OC(C)=O)[C@]5(CC)C=CCN6CC[C@]43[C@@H]65)C2)C1 [Vincristine, vincristine], the “CI values, range over the cell lines” value [1] was 0.1-0.43, the “combination index (CI)” value [2] was 0.35 and the “combination index (CI)” value [3] was 0.1. For the same molecule, the “combination index (CI)” value [4] was 0.43 and the “combination index (CI)” value [5] was 0.2.
